# Data as given in patent US20250188057A1, “NON-AROMATIC CYCLIC-PYRIMIDINE ANALOGS AS GLUCOSYLCERAMIDE SYNTHASE INHIBITORS” (Merck Sharp & Dohme LLC, priority 2022, published 2025).
# pIC50: −log10 of the molar value.
# Biological target: glucosylceramide synthase (GCS) (Homo sapiens (Human), UniProt Q16739)
# Assay: UDP-Glo glucosylceramide synthase biochemical assay
# Settings: endogenous GCS in Golgi preparations isolated from human A375 malignant melanoma skin cells; UDP detection by luminescence
# Description: A UDP-Glo™ glucosylceramide synthase biochemical assay was utilized to evaluate the effect of test compounds on the activity of endogenous levels of GCS enzyme contained within Golgi preparations isolated from human A375 malignant melanoma skin cells. The UDP-Glo™ glucosylceramide synthase assay uses UDP-Glucose as a nucleotide-glycosyl donor and ceramide as substrate acceptor molecules. In the reaction, glucosylceramide synthase (GCS) transfers glucose from UDP-Glucose to ceramide. Glucosylceramide and UDP are released as products.
# Using Promega's UDP-Glo™ Glycosyltransferase assay kit (Promega Corporation, Madison, WI, USA (Promega)), GCS activity was indirectly measured by detecting the amount of UDP produced. An aliquot of GCS enzyme (1.5 μg crude golgi preparation, total protein) and titrated test compound were aliquoted to each well and incubated for 30 minutes at room temperature. […] An equivalent volume of substrate mixture was then added to each well. Following a 20 h incubation at room temperature to allow for GCS turnover of substrate, an equal volume of UDP detection reagent (Promega) was added to each well and incubated for an additional 75 minutes at room temperature to simultaneously convert the accumulated UDP product into ATP and generate light in a luciferase reaction. The generated light was detected using a luminometer. […] luminescence values (RLUs) were normalized to mean “min” and “max” effects, as determined on each plate. “Min” was defined as the mean of the values of the wells treated with vehicle (DMSO) and which represent 0% inhibition; “max” was defined as the mean of the values of the wells treated with a reference inhibitor and which represent the 100% effect. Values for % Emax and EC50 were determined by best-fitting the normalized data to a curve in Activity Base along a four-parameter logistic nonlinear regression (4PL) model (based on the Levenberg-Marquardt algorithm and defined by the equation below): […]
# where: n is 4PMin (bottom of the curve); m is 4PMax (top of the curve); i is IP (inflection point of curve); and p is slope. See Levenberg, K., “A Method for the Solution of Certain Problems in Least Squares”, Quart. Appl. Math. 2, (1944), pp 164-168 and Marquardt, D., “An Algorithm for Least Squares Estimation on Nonlinear Parameters”, SIAM J. Appl. Math 11, (1963) pp 431-441.
# Sequence of glucosylceramide synthase (GCS) (Q16739 whole entry): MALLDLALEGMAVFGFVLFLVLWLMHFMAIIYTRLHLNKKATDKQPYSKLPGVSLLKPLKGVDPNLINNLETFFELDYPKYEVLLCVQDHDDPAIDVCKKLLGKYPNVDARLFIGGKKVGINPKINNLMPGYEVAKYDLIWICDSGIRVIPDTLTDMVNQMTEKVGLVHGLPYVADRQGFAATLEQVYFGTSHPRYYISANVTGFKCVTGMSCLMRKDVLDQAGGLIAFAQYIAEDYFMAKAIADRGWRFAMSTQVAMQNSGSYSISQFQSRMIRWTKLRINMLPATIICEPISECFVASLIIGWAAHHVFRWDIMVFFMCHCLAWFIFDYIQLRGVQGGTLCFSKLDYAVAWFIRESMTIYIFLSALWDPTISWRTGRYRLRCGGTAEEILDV
row,pIC50,Structure (SMILES)
1,5.87,"N#Cc1cnc(C2CC2)nc1N1CCC2(CC1)Cc1cc(F)ccc1O2 [Compound 64, 2-cyclopropyl-4-(5-fluoro-3H-spiro[benzofuran-2,4′-piperidin]-1′-yl)pyrimidine-5-carbonitrile]"
2,6.92,"N#Cc1cnc(C2CC2)nc1N1Cc2cccn3c(C(=O)NCC4CC4)cc(c23)C1 [Compound 65, 2-(5-cyano-2-cyclopropylpyrimidin-4-yl)-N-(cyclopropylmethyl)-2,3-dihydro-1H-pyrrrolo[3,2,1-ij][1,6]naphthyridine-5-carboxamide]"
3,6.68,"CNC(=O)[C@]12CN(c3nc(C4CC4)ncc3C#N)C[C@H]1C(c1ccc(C)cc1)=NO2 [Compound 67, (3aS,6aR)-5-(5-cyano-2-cyclopropylpyrimidin-4-yl)-N-methyl-3-(p-tolyl)-3a,4,5,6-tetrahydro-6aH-pyrrolo[3,4-d]isoxazole-6a-carboxamide]"
4,6.26,"N#Cc1cnc(C2CC2)nc1N1CCOCC1c1ccccc1F (stereo not shown) [Compound 68, 2-cyclopropyl-4-(3-(2-fluorophenyl)morpholino)pyrimidine-5-carbonitrile]"
5,5.56,"N#Cc1cnc(C2CC2)nc1N1CCc2c(sn(Cc3ccc(F)cc3)c2=O)C1 [Compound 69, 2-cyclopropyl-4-(2-(4-fluorobenzyl)-3-oxo-3,4,5,7-tetrahydroisothiazolo[5,4-c]pyridin-6(2H)-yl)pyrimidine-5-carbonitrile]"
6,6.06,"N#Cc1cnc(C2CC2)nc1N1CCN(Cc2nc(-c3ccc(Cl)cc3)no2)CC1 [Compound 70, 4-(4-((3-(4-chlorophenyl)-1,2,4-oxadiazol-5-yl)methyl)piperazin-1-yl)-2-cyclopropylpyrimidine-5-carbonitrile]"
7,6.08,"CC(C)N1C(=O)[C@]2(c3ccsc3)CN(c3nc(C4CC4)ncc3C#N)C[C@@H]2S1(=O)=O [Compound 71, 2-cyclopropyl-4-((3aS,6aR)-2-isopropyl-1,1-dioxido-3-oxo-3a-(thiophen-3-yl)hexahydro-5H-pyrrolo[3,4-d]isothiazol-5-yl)pyrimidine-5-carbonitrile]"
8,5.95,"N#Cc1cnc(C2CC2)nc1N1CCC(O)(c2cccc(C(F)(F)F)c2)CC1 [Compound 73, 2-cyclopropyl-4-(4-hydroxy-4-(3-(trifluoromethyl)phenyl)piperidin-1-yl)pyrimidine-5-carbonitrile]"
9,5.96,"N#Cc1cnc(C2CC2)nc1N1CCC2(CC1)NC(=O)Nc1ccccc12 [Compound 75, 2-cyclopropyl-4-(2′-oxo-2′,3′-dihydro-1′H-spiro[piperidine-4,4′-quinazolin]-1-yl)pyrimidine-5-carbonitrile]"
10,5.83,"N#Cc1cnc(C2CC2)nc1N1CCCC(c2cc3cccnc3[nH]2)C1 (stereo not shown) [Compound 76, 4-(3-(1H-pyrrolo[2,3-b]pyridin-2-yl)piperidin-1-yl)-2-cyclopropylpyrimidine-5-carbonitrile]"
11,6.18,"CCNC(=O)[C@]12CN(c3nc(C4CC4)ncc3C#N)C[C@H]1C(Oc1ccccc1)=NO2 [Compound 77, (3aR)-5-(5-cyano-2-cyclopropylpyrimidin-4-yl)-N-ethyl-3-phenoxy-3a,4,5,6-tetrahydro-6aH-pyrrolo[3,4-b]isoxazole-6a-carboxamide]"
12,6.52,"COC(=O)C[C@@H]1COc2cc(OC3CN(c4nc(C5CC5)ncc4C#N)C3)ccc21 [Compound 80, methyl (S)-2-(6-((1-(5-cyano-2-cyclopropylpyrimidin-4-yl)azetidin-3-yl)oxy)-2,3-dihydrobenzofuran-3-yl)acetate]"
13,6.23,"COC[C@@H](c1ccc(C(F)(F)F)cc1)N1CCN(c2nc(C3CC3)ncc2C#N)C[C@@H]1C [Compound 81, 2-cyclopropyl-4-((S)-4-((R)-2-methoxy-1-(4-(trifluoromethyl)phenyl)ethyl)-3-methylpiperazin-1-yl)pyrimidine-5-carbonitrile]"
14,6.77,"CNC(=O)C12CN(c3nc(C4CC4)ncc3C#N)CC1C(c1ccc(C)cc1)=NO2 (stereo not shown) [Compound 85, 5-(5-cyano-2-cyclopropylpyrimidin-4-yl)-N-methyl-3-(p-tolyl)-3a,4,5,6-tetrahydro-6aH-pyrrolo[3,4-d]isoxazole-6a-carboxamide]"
15,6.03,"N#Cc1cnc(C2CC2)nc1N1CC2OCCN(Cc3ccccc3)C2C1 (stereo not shown) [Compound 86, 4-(4-benzylhexahydropyrrolo[3,4-b][1,4]oxazin-6(2H)-yl)-2-cyclopropylpyrimidine-5-carbonitrile]"
16,6.66,"N#Cc1ccccc1C1CCN(c2nc(C3CC3)ncc2C#N)C1 (stereo not shown) [Compound 87, 4-(3-(2-cyanophenyl)pyrrolidin-1-yl)-2-cyclopropylpyrimidine-5-carbonitrile]"
17,6.35,"Cc1ccc(-c2noc(CN3CCN(c4nc(C5CC5)ncc4C#N)CC3)n2)cc1 [Compound 88, 2-cyclopropyl-4-(4-((3-(p-tolyl)-1,2,4-oxadiazol-5-yl)methyl)piperazin-1-yl)pyrimidine-5-carbonitrile]"
18,6.45,"N#Cc1cnc(C2CC2)nc1N1C[C@@H]2C[C@H]1CN2Cc1ccc(Cl)cc1 [Compound 89, 4-((1S,4S)-5-(4-chlorobenzyl)-2,5-diazabicyclo[2.2.1]heptan-2-yl)-2-cyclopropylpyrimidine-5-carbonitrile]"

# Second part, the compound before the results:
row,Structure (SMILES),pIC50
1,"N#Cc1cnc(C2CC2)nc1N1CCc2nc[nH]c2C1c1cccc(F)c1 (stereo not shown) [Compound 66, 2-cyclopropyl-4-(4-(3-fluorophenyl)-3,4,6,7-tetrahydro-5H-imidazo[4,5-c]pyridin-5-yl)pyrimidine-5-carbonitrile]",5.69
2,"N#Cc1cnc(C2CC2)nc1N1CC2CCCC1CN(Cc1ccccc1)C2 (stereo not shown) [Compound 72, 4-(3-benzyl-3,9-diazabicyclo[3.3.2]decan-9-yl)-2-cyclopropylpyrimidine-5-carbonitrile]",5.73
3,"N#Cc1cnc(C2CC2)nc1N(CC1CCCO1)CC1CC2C=CC1C2 (stereo not shown) [Compound 74, 4-((bicyclo[2.2.1]hept-5-en-2-ylmethyl)((tetrahydrofuran-2-yl)methyl)amino)-2-cyclopropylpyrimidine-5-carbonitrile]",6.56
4,"N#Cc1cnc(C2CC2)nc1N1CCC(N2CCN(Cc3ccc(F)cc3)S2(=O)=O)CC1 [Compound 78, 2-cyclopropyl-4-(4-(5-(4-fluorobenzyl)-1,1-dioxido-1,2,5-thiadiazolidin-2-yl)piperidin-1-yl)pyrimidine-5-carbonitrile]",5.75
5,"N#Cc1cnc(C2CC2)nc1N1CCN(Cc2ccccc2)C[C@@H]1COCc1ccccc1 [Compound 79, (R)-4-(4-bnezyl-2-((benzyloxy)methyl)piperazin-1-yl)-2-cyclopropylpyrimidine-5-carbonitrile]",5.49
6,"N#Cc1cnc(C2CC2)nc1NC1CCN(Cc2ccccc2)C1c1ccccc1 (stereo not shown) [Compound 82, 4-((1-benzyl-2-phenylpyrrolidin-3-yl)amino)-2-cyclopropylpyrimidine-5-carbonitrile]",6.11
7,"N#Cc1cnc(C2CC2)nc1N1CCC(N(C2CC2)S(=O)(=O)c2ccccc2)CC1 [Compound 83, N-(1-(5-cyano-2-cyclopropylpyrimidin-4-yl)piperidin-4-yl)-N-cyclopropylbenzenesulfonamide]",5.80
8,"N#Cc1cnc(C2CC2)nc1NC(c1ccccc1)C1(N2CCCCC2)CCC1 (stereo not shown) [Compound 84, 2-cyclopropyl-4-((phenyl(1-(piperidin-1-yl)cyclobutyl)methyl)amino)pyrimidine-5-carbonitrile]",5.91
9,"N#Cc1cnc(C2CC2)nc1N(CC1CCC1)CC1CCCO1 (stereo not shown) [Compound 90, 4-((cyclobutylmethyl)((tetrahydrofuran-2-yl)methyl)amino)-2-cyclopropylpyrimidine-5-carbonitrile]",5.79
10,"N#Cc1cnc(C2CC2)nc1NC1CCc2ccc(O)cc21 (stereo not shown) [Compound 91, 2-cyclopropyl-4-((6-hydroxy-2,3-dihydro-1H-inden-1-yl)amino)pyrimidine-5-carbonitrile]",6.42
11,"N#Cc1cnc(C2CC2)nc1NC1CN(C(c2ccccc2)c2ccccc2)C1 [Compound 92, 4-((1-benzhydrylazetidin-3-yl)amino)-2-cyclopropylpyrimidine-5-carbonitrile]",5.54
12,"CC(C)c1nc(-c2cccnc2N2CCN(c3nc(C4CC4)ncc3C#N)CC2)no1 [Compound 93, 2-cyclopropyl-4-(4-(3-(5-isopropyl-1,2,4-oxadiazol-3-yl)pyridin-2-yl)piperazin-1-yl)pyrimidine-5-carbonitrile]",7.32
13,"N#Cc1cnc(C2CC2)nc1NC1CCCc2sc(C3CCCCC3)nc21 (stereo not shown) [Compound 94, 4-((2-cyclohexyl-4,5,6,7-tetrahydrobenzo[d]thiazol-4-yl)amino)-2-cyclopropylpyrimidine-5-carbonitrile]",7.85
